This note sets out measurements from publication PMC11167047 (Cell Death Discovery, 2024).

Common to all, as to test: kinome screen (33PanQinase)
Holding throughout (type): biochemical

One test deals with T1, ASK1 (Homo sapiens, UniProt Q99683).
T1 construct: purchased Reaction Biology Europe GmbH (formerly ProQinase)
T1 sequence (Q99683 1-1374): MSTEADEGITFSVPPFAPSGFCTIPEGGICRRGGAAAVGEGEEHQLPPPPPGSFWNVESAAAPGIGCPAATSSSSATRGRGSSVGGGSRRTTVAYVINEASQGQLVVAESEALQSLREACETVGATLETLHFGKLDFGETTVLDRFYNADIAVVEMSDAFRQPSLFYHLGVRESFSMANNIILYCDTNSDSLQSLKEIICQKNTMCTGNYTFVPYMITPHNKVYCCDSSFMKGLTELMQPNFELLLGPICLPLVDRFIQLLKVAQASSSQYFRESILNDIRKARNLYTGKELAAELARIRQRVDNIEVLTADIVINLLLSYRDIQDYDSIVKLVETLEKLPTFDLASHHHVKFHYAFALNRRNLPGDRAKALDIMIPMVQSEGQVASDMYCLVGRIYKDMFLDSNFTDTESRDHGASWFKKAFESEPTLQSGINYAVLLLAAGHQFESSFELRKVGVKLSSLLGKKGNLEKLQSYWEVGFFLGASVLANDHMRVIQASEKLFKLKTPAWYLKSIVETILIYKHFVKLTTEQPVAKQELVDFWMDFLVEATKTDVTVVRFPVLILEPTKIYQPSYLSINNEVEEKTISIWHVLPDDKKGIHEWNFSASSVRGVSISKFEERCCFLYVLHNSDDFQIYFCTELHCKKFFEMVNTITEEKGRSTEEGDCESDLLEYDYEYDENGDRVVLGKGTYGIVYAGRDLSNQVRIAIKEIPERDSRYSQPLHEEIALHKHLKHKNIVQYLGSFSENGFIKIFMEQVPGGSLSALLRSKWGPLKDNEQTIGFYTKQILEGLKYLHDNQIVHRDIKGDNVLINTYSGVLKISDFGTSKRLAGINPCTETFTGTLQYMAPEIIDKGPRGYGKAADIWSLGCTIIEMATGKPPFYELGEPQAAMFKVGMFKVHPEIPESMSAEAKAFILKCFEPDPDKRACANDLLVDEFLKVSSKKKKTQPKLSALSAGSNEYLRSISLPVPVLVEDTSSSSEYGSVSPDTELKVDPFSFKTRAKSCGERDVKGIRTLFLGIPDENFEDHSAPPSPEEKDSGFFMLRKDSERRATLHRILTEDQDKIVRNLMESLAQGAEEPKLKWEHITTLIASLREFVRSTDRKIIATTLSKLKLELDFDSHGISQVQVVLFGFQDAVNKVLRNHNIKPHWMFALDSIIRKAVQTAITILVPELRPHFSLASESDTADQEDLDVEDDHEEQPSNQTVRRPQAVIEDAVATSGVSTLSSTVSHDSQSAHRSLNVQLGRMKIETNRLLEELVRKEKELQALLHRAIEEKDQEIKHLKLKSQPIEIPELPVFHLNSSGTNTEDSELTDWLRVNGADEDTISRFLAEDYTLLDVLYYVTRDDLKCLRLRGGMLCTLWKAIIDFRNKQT
The protocol: (§1) The Kinome Screening was performed by Reaction Biology Europe GmbH (http://reactionbiology.com; Freiburg i. Br., Germany).

For another test, the target named is T2, CDK2/CycD1 (Homo sapiens, UniProt P24941).
T2 construct: purchased Reaction Biology Europe GmbH (formerly ProQinase)
How it is done:
as §1

A further test has as its target T3, CDK8/CycC (Homo sapiens, UniProt P49336).
T3 construct: purchased Reaction Biology Europe GmbH (formerly ProQinase)
The protocol: as §1

The target in another test is T4, CDK9/CycK (Homo sapiens, UniProt P50750).
T4 construct: purchased Reaction Biology Europe GmbH (formerly ProQinase)
How it is done:
as §1

The target in the next test is T5, GRK4 (Homo sapiens, UniProt P32298).
T5 construct: purchased Reaction Biology Europe GmbH (formerly ProQinase)
How it is done: as §1

The next test deals with T6, MARK4 (Homo sapiens, UniProt Q96L34).
T6 construct: purchased Reaction Biology Europe GmbH (formerly ProQinase)
T6 sequence (Q96L34 1-752): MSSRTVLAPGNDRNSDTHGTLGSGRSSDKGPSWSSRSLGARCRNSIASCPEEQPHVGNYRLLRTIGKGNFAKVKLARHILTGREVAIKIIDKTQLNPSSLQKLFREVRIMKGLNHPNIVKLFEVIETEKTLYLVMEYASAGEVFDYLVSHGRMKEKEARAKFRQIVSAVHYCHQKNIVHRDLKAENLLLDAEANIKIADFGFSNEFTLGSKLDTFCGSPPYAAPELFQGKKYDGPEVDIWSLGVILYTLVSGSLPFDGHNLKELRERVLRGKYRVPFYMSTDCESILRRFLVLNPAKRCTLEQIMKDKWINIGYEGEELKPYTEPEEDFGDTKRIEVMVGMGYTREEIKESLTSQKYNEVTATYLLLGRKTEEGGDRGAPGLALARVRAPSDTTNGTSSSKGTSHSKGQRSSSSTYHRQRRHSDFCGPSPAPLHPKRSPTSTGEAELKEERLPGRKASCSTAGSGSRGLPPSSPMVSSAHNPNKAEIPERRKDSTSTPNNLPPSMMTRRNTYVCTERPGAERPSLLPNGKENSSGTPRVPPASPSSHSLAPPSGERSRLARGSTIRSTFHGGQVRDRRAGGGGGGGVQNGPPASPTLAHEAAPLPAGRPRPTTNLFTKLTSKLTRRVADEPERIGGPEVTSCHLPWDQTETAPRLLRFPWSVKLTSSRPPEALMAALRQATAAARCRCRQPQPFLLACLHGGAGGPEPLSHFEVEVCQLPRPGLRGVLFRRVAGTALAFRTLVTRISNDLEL
How it is done:
as §1

In the next test the target is T7, STK33 (Homo sapiens, UniProt Q9BYT3).
T7 construct: purchased Reaction Biology Europe GmbH (formerly ProQinase)
How it is done:
as §1

T7 sequence (Q9BYT3 whole entry): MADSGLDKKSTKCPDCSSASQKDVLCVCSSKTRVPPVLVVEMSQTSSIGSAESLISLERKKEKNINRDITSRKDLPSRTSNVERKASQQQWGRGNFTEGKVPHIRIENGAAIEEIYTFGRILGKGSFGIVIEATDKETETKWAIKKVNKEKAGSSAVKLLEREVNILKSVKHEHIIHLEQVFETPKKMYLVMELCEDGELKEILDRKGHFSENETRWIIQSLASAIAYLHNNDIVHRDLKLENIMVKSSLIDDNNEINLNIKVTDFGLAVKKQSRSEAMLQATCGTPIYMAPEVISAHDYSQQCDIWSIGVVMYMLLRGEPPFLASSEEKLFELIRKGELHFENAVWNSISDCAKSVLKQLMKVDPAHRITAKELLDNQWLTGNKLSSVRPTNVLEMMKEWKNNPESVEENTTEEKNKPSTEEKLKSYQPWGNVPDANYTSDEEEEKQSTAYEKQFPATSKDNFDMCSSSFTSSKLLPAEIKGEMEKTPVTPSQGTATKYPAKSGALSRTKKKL
T3 sequence (P49336 whole entry): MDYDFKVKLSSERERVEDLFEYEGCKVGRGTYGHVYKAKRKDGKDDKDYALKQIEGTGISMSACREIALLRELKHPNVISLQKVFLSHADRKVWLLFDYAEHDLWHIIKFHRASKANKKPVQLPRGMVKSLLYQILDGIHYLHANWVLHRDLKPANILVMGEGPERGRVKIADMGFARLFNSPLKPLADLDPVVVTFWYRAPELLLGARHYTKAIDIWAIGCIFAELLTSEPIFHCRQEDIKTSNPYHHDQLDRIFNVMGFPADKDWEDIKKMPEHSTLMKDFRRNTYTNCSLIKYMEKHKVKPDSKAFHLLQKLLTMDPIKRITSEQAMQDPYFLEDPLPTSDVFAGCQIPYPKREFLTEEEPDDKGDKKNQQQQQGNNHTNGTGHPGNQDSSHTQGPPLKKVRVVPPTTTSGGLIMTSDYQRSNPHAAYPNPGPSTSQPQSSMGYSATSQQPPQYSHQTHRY
T3 sequence (P24863 whole entry partner): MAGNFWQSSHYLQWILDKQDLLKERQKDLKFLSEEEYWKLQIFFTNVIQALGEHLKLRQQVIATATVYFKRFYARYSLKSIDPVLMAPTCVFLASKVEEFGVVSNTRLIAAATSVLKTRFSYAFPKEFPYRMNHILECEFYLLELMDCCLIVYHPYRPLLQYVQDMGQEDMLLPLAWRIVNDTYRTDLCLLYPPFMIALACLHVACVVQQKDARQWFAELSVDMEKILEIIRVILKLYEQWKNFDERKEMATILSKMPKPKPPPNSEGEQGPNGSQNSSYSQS
T4 sequence (P50750 whole entry): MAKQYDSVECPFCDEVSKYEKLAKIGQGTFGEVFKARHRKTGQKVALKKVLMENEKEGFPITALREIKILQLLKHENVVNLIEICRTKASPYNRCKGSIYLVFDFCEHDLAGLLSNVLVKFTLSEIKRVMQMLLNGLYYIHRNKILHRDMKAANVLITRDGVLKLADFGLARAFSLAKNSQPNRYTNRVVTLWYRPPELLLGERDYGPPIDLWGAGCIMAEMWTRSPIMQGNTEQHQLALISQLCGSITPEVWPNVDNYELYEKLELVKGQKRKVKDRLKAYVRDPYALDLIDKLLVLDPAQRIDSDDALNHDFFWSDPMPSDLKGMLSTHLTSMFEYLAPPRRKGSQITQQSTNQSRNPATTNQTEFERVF
T4 sequence (O75909 whole entry partner): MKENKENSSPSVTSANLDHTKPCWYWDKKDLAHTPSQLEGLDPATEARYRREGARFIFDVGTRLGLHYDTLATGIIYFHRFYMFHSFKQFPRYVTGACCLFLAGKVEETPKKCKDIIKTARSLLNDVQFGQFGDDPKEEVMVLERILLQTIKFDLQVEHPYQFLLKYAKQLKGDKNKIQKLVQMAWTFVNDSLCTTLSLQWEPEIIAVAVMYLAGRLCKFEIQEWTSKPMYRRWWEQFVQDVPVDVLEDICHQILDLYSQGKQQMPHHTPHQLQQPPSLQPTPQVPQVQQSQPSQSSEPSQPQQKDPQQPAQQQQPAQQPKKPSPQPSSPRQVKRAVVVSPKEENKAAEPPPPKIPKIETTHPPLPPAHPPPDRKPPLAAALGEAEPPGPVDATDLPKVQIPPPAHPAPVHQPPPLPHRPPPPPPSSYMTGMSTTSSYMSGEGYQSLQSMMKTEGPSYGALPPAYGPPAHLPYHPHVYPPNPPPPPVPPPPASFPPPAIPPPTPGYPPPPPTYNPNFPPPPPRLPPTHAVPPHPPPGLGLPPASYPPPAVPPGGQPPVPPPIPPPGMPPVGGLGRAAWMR
T5 sequence (P32298 whole entry): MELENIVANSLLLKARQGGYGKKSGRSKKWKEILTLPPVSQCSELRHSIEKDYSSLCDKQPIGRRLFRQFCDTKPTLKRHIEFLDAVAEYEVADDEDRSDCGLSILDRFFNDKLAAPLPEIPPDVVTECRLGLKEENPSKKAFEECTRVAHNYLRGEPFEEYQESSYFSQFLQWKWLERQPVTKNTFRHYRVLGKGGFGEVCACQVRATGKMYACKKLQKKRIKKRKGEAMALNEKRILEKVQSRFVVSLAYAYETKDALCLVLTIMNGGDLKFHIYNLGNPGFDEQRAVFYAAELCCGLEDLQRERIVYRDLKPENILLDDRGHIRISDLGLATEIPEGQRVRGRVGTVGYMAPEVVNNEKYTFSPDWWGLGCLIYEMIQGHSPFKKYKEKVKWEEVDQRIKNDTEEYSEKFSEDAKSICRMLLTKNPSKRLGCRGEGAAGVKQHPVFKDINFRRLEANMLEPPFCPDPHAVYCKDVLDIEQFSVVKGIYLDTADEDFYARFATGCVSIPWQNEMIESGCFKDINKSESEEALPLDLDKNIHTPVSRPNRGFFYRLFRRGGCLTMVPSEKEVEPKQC

As for `COc1ccnc2[nH]cc(-c3cc(N)nc(N)c3)c12` [meriolin 16], the residual kinase activity is 97 % of control on ASK1 (0.03 µM); 85 % of control at ASK1 (0.3 µM); 54 % of control on CDK2/CycD1 (0.03 µM); 23 % of control on CDK2/CycD1 (0.3 µM); 6 % of control on CDK8/CycC (0.03 µM); 4 % of control on CDK8/CycC (0.3 µM). Further, the residual kinase activity on CDK9/CycK (0.03 µM) is on record as 7 % of control; on CDK9/CycK (0.3 µM) it was 0 % of control; on GRK4 (0.03 µM) it was 101 % of control; at GRK4 (0.3 µM) it was 90 % of control; at MARK4 (0.03 µM), 99 % of control; at MARK4 (0.3 µM), 91 % of control. Also, the residual kinase activity at STK33 (0.03 µM) is 73 % of control; at STK33 (0.3 µM), 43 % of control.

Take `c1ccc(CNc2cc(-c3c[nH]c4ncccc34)ccn2)cc1` [meriolin 36]: the residual kinase activity at ASK1 (0.3 µM) is reported as 50 % of control; on ASK1 (3 µM), 15 % of control; on CDK2/CycD1 (0.3 µM) it was 6 % of control; at CDK2/CycD1 (3 µM), 5 % of control; on CDK8/CycC (0.3 µM), 5 % of control; at CDK8/CycC (3 µM), 2 % of control. For the same molecule, the residual kinase activity is 2 % of control at CDK9/CycK (0.3 µM); 0 % of control at CDK9/CycK (3 µM); 108 % of control on GRK4 (0.3 µM); 95 % of control on GRK4 (3 µM); 90 % of control on MARK4 (0.3 µM); 54 % of control on MARK4 (3 µM). For the same molecule, the residual kinase activity is recorded as 41 % of control at STK33 (0.3 µM) and 14 % of control at STK33 (3 µM).
